Experimental findings from patent publication US11352349B2, “Type II topoisomerase inhibitors and methods of making and using thereof” (Ohio State Innovation Foundation, priority 2017, dated 2022) are described below.

In brackets after ≈: the same amount, converted by molar mass. Where two headings read alike, the source gives them in different places. Some results are limits rather than exact numbers.

The subject of one test is S. aureus ATCC 29213. The test can be described thus: MIC by broth microdilution (CLSI), quality control strain S. aureus ATCC 29213. The test is classed as cell-based, Staphylococcus aureus. The following applies: Staphylococcus aureus, ATCC29213, S. aureus ATCC 29213; multiple values when multiple MIC assays were conducted. A general note: Broth dilution looks for growth in wells or tubes with falling amounts of substance.

The next test concerns USA 300 strain of MRSA. Description: MIC by broth microdilution, USA 300 strain of MRSA. The test is classed as cell-based, Staphylococcus aureus. The following applies: Staphylococcus aureus, multiple values when multiple MIC assays were conducted, read-out: MIC USA300. The method, then: Minimum inhibitory concentrations were determined using the quality control strain S. aureus ATCC 29213 (Table 1) by the broth microdilution method according to guidelines of the Clinical and Laboratory Standards Institute (CLSI) (Cockerill, F. R.; et al., 2012, Methods for dilution antimicrobial susceptibility tests for bacteria that grow aerobically; approved standard-ninth edition. MA07-A9. Clinical and Laboratory Standard Institute, Wayne, Pa.). […] MICs for selected compounds were also determined using a USA 300 strain of MRSA (Hidron, et al., Lancet Infect. Dis. 2009, 9:384-392). Vancomycin was used as an additional control.

The target in test [1] is T1, Staphylococcus aureus gyrase (Staphylococcus aureus, UniProt P0A0K8+P20831).
T1 construct: purchased Inspiralis, Norwich, UK
T1 sequence (P20831 whole entry): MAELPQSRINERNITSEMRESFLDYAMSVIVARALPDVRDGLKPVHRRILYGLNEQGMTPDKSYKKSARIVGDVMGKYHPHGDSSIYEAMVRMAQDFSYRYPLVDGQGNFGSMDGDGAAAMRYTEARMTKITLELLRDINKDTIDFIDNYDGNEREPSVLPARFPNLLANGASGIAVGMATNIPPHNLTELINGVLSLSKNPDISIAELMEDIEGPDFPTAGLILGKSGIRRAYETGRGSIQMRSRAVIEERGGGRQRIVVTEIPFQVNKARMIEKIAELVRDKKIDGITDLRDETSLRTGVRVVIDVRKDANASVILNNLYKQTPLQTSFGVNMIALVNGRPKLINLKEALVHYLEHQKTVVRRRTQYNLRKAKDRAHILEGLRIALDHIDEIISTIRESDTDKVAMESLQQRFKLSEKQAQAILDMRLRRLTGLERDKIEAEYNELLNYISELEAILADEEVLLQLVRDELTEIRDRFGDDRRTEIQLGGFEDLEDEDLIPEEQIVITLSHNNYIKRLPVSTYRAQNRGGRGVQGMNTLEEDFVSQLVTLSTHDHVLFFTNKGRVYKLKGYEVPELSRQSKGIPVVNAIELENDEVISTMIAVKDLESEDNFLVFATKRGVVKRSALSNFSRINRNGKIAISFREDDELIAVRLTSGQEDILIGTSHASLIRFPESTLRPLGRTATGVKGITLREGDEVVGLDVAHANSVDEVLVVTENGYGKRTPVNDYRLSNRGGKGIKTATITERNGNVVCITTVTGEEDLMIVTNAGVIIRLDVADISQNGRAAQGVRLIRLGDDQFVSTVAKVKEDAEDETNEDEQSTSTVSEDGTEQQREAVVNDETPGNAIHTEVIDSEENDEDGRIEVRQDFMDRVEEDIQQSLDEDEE
T1 sequence (P0A0K8 whole entry): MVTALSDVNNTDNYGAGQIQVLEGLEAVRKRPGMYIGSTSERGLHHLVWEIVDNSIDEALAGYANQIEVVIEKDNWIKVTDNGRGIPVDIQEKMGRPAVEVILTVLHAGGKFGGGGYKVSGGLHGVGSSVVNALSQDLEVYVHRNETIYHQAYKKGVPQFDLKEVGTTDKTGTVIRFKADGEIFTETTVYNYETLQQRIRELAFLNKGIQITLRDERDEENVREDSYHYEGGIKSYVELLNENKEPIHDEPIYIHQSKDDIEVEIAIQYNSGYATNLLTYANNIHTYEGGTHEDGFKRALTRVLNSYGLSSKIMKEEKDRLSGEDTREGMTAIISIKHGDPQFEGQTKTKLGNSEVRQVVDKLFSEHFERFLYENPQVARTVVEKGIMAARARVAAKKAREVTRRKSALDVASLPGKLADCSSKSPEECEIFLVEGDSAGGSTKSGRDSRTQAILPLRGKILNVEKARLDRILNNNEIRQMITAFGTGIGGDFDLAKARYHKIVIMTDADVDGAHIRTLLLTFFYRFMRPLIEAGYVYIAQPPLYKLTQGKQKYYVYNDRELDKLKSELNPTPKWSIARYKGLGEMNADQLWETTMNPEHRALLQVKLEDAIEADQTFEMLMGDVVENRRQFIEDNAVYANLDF
The test can be described thus: Staphylococcus aureus gyrase supercoiling assay. The test is classed as biochemical. Here is the method:
(§1) A subset of analogs was used to assess the degree of inhibition of DNA gyrase or TopoIV (Inspiralis, Norwich, UK), both to establish the mechanism of action and to evaluate the relative balance of inhibitory activities (Table 1). A subset of compound was also assayed to determine the degree of inhibition of human topoisomerase II (Inspiralis, Norwich, UK)).
(§2) In all experiments, the activity of the enzymes was determined prior to the testing of the compounds and 1 unit (U) was defined as the amount of enzyme required to just fully supercoil, relax or decatenate the substrate (see explanation of gels). This amount of enzyme was initially used in determination of control inhibitor activity. These experiments were performed in duplicate.
(§3) For all assays the final DMSO concentration was 1%. 10 mM stocks of the compounds were serially diluted into 10% DMSO at 1 mM, 0.5 mM, 0.25 mM, 0.1 mM, 0.05 mM, 0.01 mM, 0.005 mM, 0.001 mM, 0.0005 mM, 0.0001 mM and 0.00005 mM. 3.0 μl of each dilution was added to a 30 μl assay.
(§4) Bands were visualised by ethidium staining for 20 minutes and destaining for 20 minutes. Gels were scanned using documentation equipment (GeneGenius, Syngene, Cambridge, UK) and % inhibition levels (where appropriate) were obtained with gel scanning software. (GeneTools, Syngene, Cambridge, UK)
Staphylococcus aureus gyrase supercoiling
1 U of DNA gyrase was incubated with 0.5 μg of relaxed pBR322 DNA in a 30 μl reaction at 37° C. for 30 minutes under the following conditions: 40 mM HEPES. KOH (pH 7.6), 10 mM magnesium acetate, 10 mM DTT, 2 mM ATP, 500 mM potassium glutamate and 0.05 mg/ml BSA.
Each reaction was stopped by the addition of 30 μl chloroform/iso-amyl alcohol (26:1) and 30 μl Stop Dye (40% sucrose (w/v), 100 mM Tris.HCl (pH 7.5), 10 mM EDTA, 0.5 μg/ml bromophenol blue), before being loaded on a 1.0% TAE gel run at 70V for 2 hours.

Test [2] deals with T2, Staphylococcus aureus Topo IV (Staphylococcus aureus, UniProt P0C1S7+P0C1U9).
T2 construct: purchased Inspiralis, Norwich, UK
T2 sequence (P0C1S7 whole entry): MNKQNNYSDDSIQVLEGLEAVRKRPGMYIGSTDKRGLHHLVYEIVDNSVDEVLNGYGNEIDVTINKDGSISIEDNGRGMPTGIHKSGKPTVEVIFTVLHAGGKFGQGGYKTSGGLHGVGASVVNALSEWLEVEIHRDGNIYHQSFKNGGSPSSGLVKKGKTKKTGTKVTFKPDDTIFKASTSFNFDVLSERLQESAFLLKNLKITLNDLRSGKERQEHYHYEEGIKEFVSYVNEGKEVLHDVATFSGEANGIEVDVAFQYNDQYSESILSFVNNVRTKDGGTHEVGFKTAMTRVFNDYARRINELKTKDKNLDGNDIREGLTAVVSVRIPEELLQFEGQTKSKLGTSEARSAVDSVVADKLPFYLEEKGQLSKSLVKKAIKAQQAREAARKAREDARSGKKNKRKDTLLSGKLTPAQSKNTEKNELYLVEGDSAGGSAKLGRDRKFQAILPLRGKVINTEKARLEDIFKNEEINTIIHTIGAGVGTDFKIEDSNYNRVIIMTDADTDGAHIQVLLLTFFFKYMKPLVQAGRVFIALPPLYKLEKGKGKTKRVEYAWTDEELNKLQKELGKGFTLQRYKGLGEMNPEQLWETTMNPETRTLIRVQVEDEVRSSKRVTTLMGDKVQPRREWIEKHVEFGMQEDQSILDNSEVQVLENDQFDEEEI
T2 sequence (P0C1U9 whole entry): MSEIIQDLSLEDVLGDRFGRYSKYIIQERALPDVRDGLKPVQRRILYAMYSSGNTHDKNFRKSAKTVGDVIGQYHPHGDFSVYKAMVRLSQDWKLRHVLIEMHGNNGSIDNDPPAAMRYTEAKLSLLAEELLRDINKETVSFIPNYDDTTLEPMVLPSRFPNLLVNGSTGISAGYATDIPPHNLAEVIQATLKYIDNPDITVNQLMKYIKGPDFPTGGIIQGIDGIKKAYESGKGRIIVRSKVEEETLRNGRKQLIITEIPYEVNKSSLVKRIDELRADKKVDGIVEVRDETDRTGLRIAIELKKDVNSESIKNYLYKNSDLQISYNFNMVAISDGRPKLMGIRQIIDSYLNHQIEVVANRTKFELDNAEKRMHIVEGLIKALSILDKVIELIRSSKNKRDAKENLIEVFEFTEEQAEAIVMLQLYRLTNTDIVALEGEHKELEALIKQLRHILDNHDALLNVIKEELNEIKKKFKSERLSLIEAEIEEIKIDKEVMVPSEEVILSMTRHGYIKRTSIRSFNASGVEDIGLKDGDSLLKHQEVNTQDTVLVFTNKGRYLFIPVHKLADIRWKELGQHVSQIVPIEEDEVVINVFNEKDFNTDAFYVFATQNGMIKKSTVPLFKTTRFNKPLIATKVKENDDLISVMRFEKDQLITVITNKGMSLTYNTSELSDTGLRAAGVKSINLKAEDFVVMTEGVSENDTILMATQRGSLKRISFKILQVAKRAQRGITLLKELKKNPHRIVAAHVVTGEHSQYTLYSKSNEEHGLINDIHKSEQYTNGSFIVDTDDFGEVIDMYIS
Description: Staphylococcus aureus Topo IV decatenation assay. Type of test: biochemical. Here is the method: as §1, §2, §3, §4
Staphylococcus aureus Topo IV Decatenation Assay
1 U of Topo IV was incubated with 200 ng kDNA DNA in a 30 μl reaction at 37° C. for 30 minutes under the following conditions: 50 mM Tris.HCl (7.5), 5 mM MgCl2, 5 mM DTT, 1.5 mM ATP, 350 mM potassium glutamate and 0.05 mg/ml BSA.
Each reaction was stopped by the addition of 30 μl chloroform/iso-amyl alcohol (26:1) and 30 μl Stop Dye, before being loaded on a 1.0% TAE gel run at 70V for 2 hours.

Another test addresses T3, human topo II (Homo sapiens, UniProt P11388).
T3 construct: purchased Inspiralis, Norwich, UK
The test can be described thus: Topoisomerase II (alpha) decatenation assay. The test is classed as biochemical. The following applies: activity remaining at 100 μM compound; read-out: hTopoll (% activity remaining at 100 μM). The method, then:
as §1, §2, §3, §4
Topoisomerase II (Alpha) Decatenation Assay
Each reaction was stopped by the addition of 30 μl chloroform/iso-amyl alcohol (26:1) and 30 μl Stop Dye, before being loaded on a 1.0% TAE gel run at 90V for 2 hours.

[3] abbreviates: S. aureus DNA gyrase supercoiling, read-out: Gyrase IC50.
The mark [4] stands for this setting: S. aureus Topo IV decatenation, read-out: TopolV Decat IC50.

T3 sequence (P11388 whole entry): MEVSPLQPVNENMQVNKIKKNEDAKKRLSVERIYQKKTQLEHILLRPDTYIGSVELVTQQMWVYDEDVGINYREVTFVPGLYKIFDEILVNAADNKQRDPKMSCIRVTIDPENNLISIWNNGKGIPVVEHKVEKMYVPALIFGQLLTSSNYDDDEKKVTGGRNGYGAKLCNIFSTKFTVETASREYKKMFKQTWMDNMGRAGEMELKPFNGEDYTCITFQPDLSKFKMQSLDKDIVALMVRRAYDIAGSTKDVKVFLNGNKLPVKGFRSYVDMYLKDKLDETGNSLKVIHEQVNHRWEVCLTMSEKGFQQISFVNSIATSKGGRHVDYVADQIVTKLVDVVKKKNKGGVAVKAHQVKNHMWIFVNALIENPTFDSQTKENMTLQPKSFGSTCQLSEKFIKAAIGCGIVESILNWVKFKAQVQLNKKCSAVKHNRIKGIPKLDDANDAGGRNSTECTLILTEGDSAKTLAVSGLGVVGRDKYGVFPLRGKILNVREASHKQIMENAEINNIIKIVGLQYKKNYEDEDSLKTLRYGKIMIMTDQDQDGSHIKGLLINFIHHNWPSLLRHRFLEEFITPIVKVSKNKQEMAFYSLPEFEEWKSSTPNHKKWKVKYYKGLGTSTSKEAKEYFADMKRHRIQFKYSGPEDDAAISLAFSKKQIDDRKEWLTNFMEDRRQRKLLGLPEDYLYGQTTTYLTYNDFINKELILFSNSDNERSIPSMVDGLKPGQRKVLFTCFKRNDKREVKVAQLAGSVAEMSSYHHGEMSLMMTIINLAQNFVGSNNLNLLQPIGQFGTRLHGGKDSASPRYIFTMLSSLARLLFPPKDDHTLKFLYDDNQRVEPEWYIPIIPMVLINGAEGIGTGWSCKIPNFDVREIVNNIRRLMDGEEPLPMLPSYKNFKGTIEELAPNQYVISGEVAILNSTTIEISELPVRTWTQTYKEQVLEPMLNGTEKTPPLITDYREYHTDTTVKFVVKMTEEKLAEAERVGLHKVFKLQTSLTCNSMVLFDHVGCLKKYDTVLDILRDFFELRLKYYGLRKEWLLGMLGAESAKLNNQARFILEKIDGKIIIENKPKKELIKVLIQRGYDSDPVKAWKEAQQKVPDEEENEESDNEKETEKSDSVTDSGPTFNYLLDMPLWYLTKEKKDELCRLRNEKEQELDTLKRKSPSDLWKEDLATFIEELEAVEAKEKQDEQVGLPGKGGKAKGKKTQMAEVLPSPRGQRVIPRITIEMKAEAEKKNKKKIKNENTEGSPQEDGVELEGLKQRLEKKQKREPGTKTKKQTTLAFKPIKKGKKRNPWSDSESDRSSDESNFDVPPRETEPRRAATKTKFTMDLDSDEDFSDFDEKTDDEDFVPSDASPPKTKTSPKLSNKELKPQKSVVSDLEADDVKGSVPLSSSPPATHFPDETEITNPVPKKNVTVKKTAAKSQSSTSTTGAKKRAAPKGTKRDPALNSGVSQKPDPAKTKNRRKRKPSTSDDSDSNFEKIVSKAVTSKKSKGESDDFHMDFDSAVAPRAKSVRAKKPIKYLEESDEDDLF

Turning to `COc1ccc2ncc(F)c(CC[C@H]3OC[C@H](NCc4ccc5c(n4)NC(=O)CS5)CO3)c2n1` [AB-0059, 6-(((2-(2-(3-fluoro-6-methoxy-1,5-naphthyridin-4-yl)ethyl)-trans-1,3-dioxan-5-yl)amino)methyl)-2H-pyrido[3,2-b][1,4]thiazin-3(4H)-one], the MIC in the test on S. aureus ATCC 29213 was at most 0.5 µg/mL; in the test on USA 300 strain of MRSA, 0.25 µg/mL (≈ 0.515 µM). The IC50 in test [1] (setting [3]) was 0.17 µM; in test [2] (setting [4]), above 100 µM. Besides, the remaining activity at 100 µM on human topo II worked out at 95.7%.
Take `COc1ccc2ncc(F)c(CC[C@H]3OC[C@H](NCc4ccc5c(n4)NC(=O)CO5)CO3)c2n1` [AB-0060]: the MIC stood at 0.125 µg/mL (≈ 0.266 µM) in the test on S. aureus ATCC 29213 and 0.25 µg/mL (≈ 0.533 µM) in the test on USA 300 strain of MRSA. For the same compound, the figures for the IC50 in test [1] and in test [2] were 0.13 µM and 5 to 10 µM, respectively. Moreover, the remaining activity at 100 µM at human topo II turned out to be 83.1%.
On to `COc1ccc2ncc(F)c(CC[C@H]3OC[C@H](NCc4cc5c(cn4)OCCO5)CO3)c2n1` [AB-0061, N-((2,3-dihydro-[1,4]dioxino[2,3-c]pyridin-7-yl)methyl)-2-(2-(3-fluoro-6-methoxy-1,5-naphthyridin-4-yl)ethyl)-trans-1,3-dioxan-5-amine], for which the MIC against S. aureus ATCC 29213 was 0.125 µg/mL (≈ 0.274 µM); in the test with USA 300 strain of MRSA, 0.25 µg/mL (≈ 0.548 µM). For the same compound, the IC50 in test [1] (setting [3]) was found to be 0.42 µM; in test [2] (setting [4]) it was 61 µM. The remaining activity at 100 µM on human topo II is 69.6%.
The corresponding values for `COc1ccc2ncc(F)c(CC[C@H]3OC[C@H](NCc4ccc(F)c(F)c4)CO3)c2n1` [AB-0062, N-(3,4-difluorobenzyl)-2-(2-(3-fluoro-6-methoxy-1,5-naphthyridin-4-yl)ethyl)-trans-1,3-dioxan-5-amine] are 2 µg/mL (≈ 4.61 µM), 4 µg/mL (≈ 9.23 µM), 4.43 µM, above 100 µM and 90.7%.

For orientation: MIC means the lowest concentration found to suppress growth. The IC50 is the concentration that inhibits the measured activity by half. The remaining activity is the signal under treatment as a percentage of the control signal.
